Laboratory results: DBAASP
In brackets after ≈: the same amount, converted by molar mass.

What was measured:
Assay in all cases: ≥ marks a high value that may be exact or a test limit, other limits are often not marked, values filed in µg/mL are converted to µM
Bacillus cereus = system: Bacillus cereus
Escherichia coli = system: Escherichia coli
[1] = system: Escherichia coli ATCC 25922
[2] = system: Staphylococcus aureus ATCC 29213
[3] = system: Pseudomonas aeruginosa ATCC 27853
[4] = system: Candida albicans ATCC 90028
Pseudomonas aeruginosa = system: Pseudomonas aeruginosa
Staphylococcus aureus = system: Staphylococcus aureus
[5] = system: Enterococcus faecalis ATCC 29212

Row | SMILES | MIC (Escherichia coli) | MIC [1] | MIC [2] | other results
1 | CC[C@H](C)[C@H](NC(=O)[C@H](CO)NC(=O)[C@H](C)NC(=O)[C@H](CCCCN)NC(=O)[C@H](CC(C)C)NC(=O)[C@@H](NC(=O)[C@@H](NC(=O)[C@@H]1CCCN1C(=O)[C@@H](NC(=O)[C@@H](NC(=O)[C@@H](N)CCCCN)[C@@H](C)O)C(C)C)C(C)C)C(C)C)C(=O)N[C@@H](CCCCN)C(=O)N[C@H](C(=O)N[C@@H](CO)C(=O)N[C@@H](CO)C(=O)N[C@@H](C)C(=O)NCC(=O)N[C@@H](Cc1ccccc1)C(=O)NCC(=O)N[C@@H](Cc1ccccc1)C(=O)O)C(C)C [KTVPVVLKASIKVSSAGFGF] | > 126 µM |  |  | MIC (Bacillus cereus): ≥ 126 µM
2 | CC(=O)N[C@@H](CCCCN)C(=O)N[C@@H](CC(C)C)C(=O)N[C@@H](CC(C)C)C(=O)N[C@@H](CCCCN)C(=O)N[C@@H](CC(C)C)C(=O)N[C@@H](CC(C)C)C(=O)N[C@@H](CCCCN)C(=O)N[C@@H](CCCCN)C(=O)N1CCC[C@H]1C(=O)N[C@@H](CC(C)C)C(=O)N[C@@H](CCCCN)C(=O)N[C@@H](CC(C)C)C(=O)N[C@@H](CC(C)C)C(=O)N[C@@H](CCCCN)C(N)=O [KLLKLLKKPLKLLK] |  | > 80 µM | > 80 µM | 
3 | CC[C@H](C)[C@H](NC(=O)[C@H](CCCN=C(N)N)NC(=O)[C@H](CCC(N)=O)NC(=O)[C@@H](NC(=O)[C@H](CCCCN)NC(=O)[C@H](CCCN=C(N)N)NC(=O)[C@@H](N)CCCCN)C(C)C)C(=O)N[C@@H](CCCCN)C(=O)N[C@@H](CC(=O)O)C(=O)N[C@@H](Cc1ccccc1)C(=O)N[C@@H](CC(C)C)C(=O)N[C@@H](CCCN=C(N)N)C(=O)O [KRKVQRIKDFLR] |  | 1.25 µM (≈ 1.98 µg/mL) | 10 µM (≈ 15.9 µg/mL) | MIC [3]: 2.5 µM (≈ 3.97 µg/mL); MIC [4]: 20 µM (≈ 31.7 µg/mL)
4 | CC(C)C[C@H](NC(=O)CNC(=O)[C@H](Cc1ccccc1)NC(=O)[C@@H](NC(=O)[C@H](CO)NC(=O)[C@@H]1CCCN1C(=O)[C@@H](NC(=O)[C@@H](NC(=O)[C@H](CCCCN)NC(=O)[C@H](CO)NC(=O)[C@H](C)NC(=O)[C@H](CC(C)C)NC(=O)[C@H](CCCCN)NC(=O)[C@H](Cc1ccccc1)NC(=O)[C@@H](NC(=O)[C@H](C)NC(=O)[C@@H]1CCCN1C(=O)[C@@H](N)CC(C)C)C(C)C)C(C)C)C(C)C)C(C)C)C(=O)N[C@H](C(=O)N[C@@H](CCCCN)C(=O)O)C(C)C [LPAVFKLASKVVPSVFGLVK] | > 122 µM |  |  | MIC (Bacillus cereus): ≥ 122 µM
5 | CC[C@H](C)[C@H](NC(=O)[C@H](Cc1ccccc1)NC(=O)CN)C(=O)NCC(=O)N[C@@H](CCCCN)C(=O)N[C@@H](CC(C)C)C(=O)N[C@@H](C)C(=O)N[C@@H](CO)C(=O)N[C@@H](CCCCN)C(=O)N[C@H](C(=O)N[C@H](C(=O)N1CCC[C@H]1C(=O)N[C@@H](CO)C(=O)N[C@H](C(=O)N[C@@H](Cc1ccc(O)cc1)C(=O)N[C@@H](CS)C(=O)N[C@@H](CCCCN)C(=O)N[C@H](C(=O)N[C@H](C(=O)NCC(=O)O)[C@@H](C)O)C(C)C)C(C)C)C(C)C)C(C)C [GFIGKLASKVVPSVYCKVTG] | 62.3 µM (≈ 128 µg/mL) |  |  | MIC (Bacillus cereus): ≥ 125 µM
6 | CC[C@H](C)[C@H](NC(=O)[C@H](CCCN=C(N)N)NC(=O)[C@@H](N)CCCCN)C(=O)N[C@H](C(=O)N[C@@H](CCC(N)=O)C(=O)N[C@@H](CCCN=C(N)N)C(=O)N[C@@H](CCCCN)C(=O)N[C@@H](CCCCN)C(=O)N[C@@H](CC(=O)O)C(=O)N[C@@H](Cc1ccccc1)C(=O)N[C@@H](CC(C)C)C(=O)N[C@@H](CCCN=C(N)N)C(=O)O)C(C)C [KRIVQRKKDFLR] |  | 20 µM (≈ 31.7 µg/mL) | 40 µM (≈ 63.5 µg/mL) | MIC [3]: 40 µM (≈ 63.5 µg/mL); MIC [4]: ≥ 40 µM
7 | CC(=O)N[C@@H](CC(C)C)C(=O)N[C@@H](CCCCN)C(=O)N[C@@H](CCCCN)C(=O)N[C@@H](CC(C)C)C(=O)N[C@@H](CC(C)C)C(=O)N[C@@H](CCCCN)C(=O)N[C@@H](CC(C)C)C(=O)N[C@@H](CC(C)C)C(=O)N[C@@H](CCCCN)C(=O)N[C@@H](CCCCN)C(=O)N[C@@H](CC(C)C)C(=O)N1CCC[C@H]1C(=O)N[C@@H](CCCCN)C(=O)N[C@@H](CC(C)C)C(N)=O [LKKLLKLLKKLPKL] |  | 5 µM (≈ 8.59 µg/mL) | 10 µM (≈ 17.2 µg/mL) | 
8 | CC[C@H](C)[C@H](NC(=O)CN)C(=O)NCC(=O)N[C@@H](CCCCN)C(=O)N[C@@H](Cc1ccccc1)C(=O)N[C@H](C(=O)N[C@@H](Cc1cnc[nH]1)C(=O)N[C@@H](CO)C(=O)N[C@@H](C)C(=O)N[C@@H](CCCCN)C(=O)N[C@@H](CCCCN)C(=O)N[C@@H](Cc1ccccc1)C(=O)NCC(=O)N[C@@H](CCCCN)C(=O)N[C@@H](CC(C)C)C(=O)N[C@@H](Cc1ccccc1)C(=O)N[C@H](C(=O)NCC(=O)N[C@@H](CCC(=O)O)C(=O)N[C@H](C(=O)N[C@@H](CCSC)C(=O)N[C@@H](CC(N)=O)C(=O)N[C@@H](CO)C(N)=O)[C@@H](C)CC)C(C)C)[C@@H](C)CC [GIGKFIHSAKKFGKLFVGEIMNS] | 26.9 µM (≈ 67.4 µg/mL) |  |  | MIC (Pseudomonas aeruginosa): 76 µM (≈ 191 µg/mL); MIC (Staphylococcus aureus): 38 µM (≈ 95.3 µg/mL)
9 | CC[C@H](C)[C@H](NC(=O)CN)C(=O)N[C@@H](C)C(=O)N[C@@H](CCCCN)C(=O)N[C@@H](Cc1ccccc1)C(=O)NCC(=O)N[C@@H](CCCCN)C(=O)N[C@@H](C)C(=O)N[C@@H](C)C(=O)N[C@@H](C)C(=O)N[C@@H](Cc1cnc[nH]1)C(=O)N[C@@H](Cc1ccccc1)C(=O)NCC(=O)N[C@@H](CCCCN)C(=O)N[C@@H](CCCCN)C(=O)N[C@@H](Cc1c[nH]c2ccccc12)C(=O)N[C@H](C(=O)NCC(=O)N[C@@H](CCC(=O)O)C(=O)N[C@@H](CC(C)C)C(=O)N[C@@H](CCSC)C(=O)N[C@@H](CC(N)=O)C(=O)N[C@@H](CO)C(N)=O)C(C)C [GIAKFGKAAAHFGKKWVGELMNS] | 75 µM (≈ 184 µg/mL) |  |  | MIC (Pseudomonas aeruginosa): > 75 µM; MIC (Staphylococcus aureus): > 75 µM
10 | CC[C@H](C)[C@H](NC(=O)CN)C(=O)N[C@@H](CCSC)C(=O)N[C@@H](CC(=O)O)C(=O)N[C@H](C(=O)N[C@H](C(=O)N[C@@H](CCCCN)C(=O)N[C@@H](CC(N)=O)C(=O)N[C@@H](C)C(=O)N[C@@H](C)C(=O)N[C@@H](CCCCN)C(=O)N[C@@H](CC(=O)O)C(=O)N[C@@H](CC(C)C)C(=O)N[C@@H](C)C(=O)NCC(=O)N[C@@H](CCC(N)=O)C(=O)N[C@@H](CC(C)C)C(=O)N[C@@H](CC(=O)O)C(=O)N[C@@H](CCCCN)C(=O)N[C@@H](CC(C)C)C(=O)N[C@@H](CCCCN)C(=O)N[C@H]1CSSC[C@@H](C(=O)O)NC(=O)CNC(=O)[C@H]([C@@H](C)O)NC(=O)[C@H]([C@@H](C)CC)NC(=O)[C@H](CCCN=C(N)N)NC1=O)C(C)C)[C@@H](C)O [GIMDTVKNAAKDLAGQLDKLKCRITGC] |  | 23 µM (≈ 65.8 µg/mL) |  | MIC [4]: ≥ 130 µM
11 | CSCC[C@H](NC(=O)[C@H](CCCN=C(N)N)NC(=O)[C@H](Cc1c[nH]c2ccccc12)NC(=O)[C@H](CCC(N)=O)NC(=O)[C@H](Cc1c[nH]c2ccccc12)NC(=O)[C@H](CCCN=C(N)N)NC(=O)[C@H](CCCN=C(N)N)NC(=O)[C@H](C)NC(=O)[C@H](CCCCN)NC(=O)[C@@H](N)Cc1ccccc1)C(=O)O [FKARRWQWRM] |  | 34.2 µM (≈ 50.1 µg/mL) |  | MIC [5]: 68.4 µM (≈ 100 µg/mL)
12 | CC(=O)N[C@@H](CC(C)C)C(=O)N[C@@H](CCCCN)C(=O)N[C@@H](CCCCN)C(=O)N[C@@H](CC(C)C)C(=O)N[C@@H](CC(C)C)C(=O)N[C@@H](CCCCN)C(=O)N[C@@H](CC(C)C)C(=O)N[C@@H](CC(C)C)C(=O)N1CCC[C@H]1C(=O)N[C@@H](CCCCN)C(=O)N[C@@H](CC(C)C)C(=O)N[C@@H](CC(C)C)C(=O)N[C@@H](CCCCN)C(=O)N[C@@H](CC(C)C)C(N)=O [LKKLLKLLPKLLKL] |  | 5 µM (≈ 8.51 µg/mL) | 2.5 µM (≈ 4.26 µg/mL) | 
13 | NC(=O)[C@H](CCCN=C(N)N)NC(=O)[C@H](CCCN=C(N)N)NC(=O)[C@H](Cc1c[nH]c2ccccc12)NC(=O)[C@H](Cc1c[nH]c2ccccc12)NC(=O)[C@H](CCCN=C(N)N)NC(=O)[C@H](CCCN=C(N)N)NC(=O)[C@H](Cc1c[nH]c2ccccc12)NC(=O)[C@H](Cc1c[nH]c2ccccc12)NC(=O)[C@H](Cc1c[nH]c2ccccc12)NC(=O)[C@H](CCCN=C(N)N)NC(=O)[C@H](CCCN=C(N)N)NC(=O)[C@@H](N)CCCN=C(N)N [RRRWWWRRWWRR] |  |  |  | MIC (Pseudomonas aeruginosa): 1.96 µM (≈ 4 µg/mL)
14 | CC[C@H](C)[C@H](NC(=O)[C@H](C)NC(=O)CNC(=O)[C@H](Cc1ccccc1)NC(=O)[C@@H](NC(=O)[C@H](CO)NC(=O)[C@@H]1CCCN1C(=O)[C@@H](NC(=O)[C@@H](NC(=O)[C@H](CCCCN)NC(=O)[C@H](CO)NC(=O)[C@H](C)NC(=O)[C@H](CC(C)C)NC(=O)[C@H](CO)NC(=O)CNC(=O)[C@@H](NC(=O)[C@@H](N)Cc1ccccc1)C(C)C)C(C)C)C(C)C)C(C)C)C(=O)N[C@@H](CCCCN)C(=O)N[C@H](C(=O)N[C@@H](CCCCN)C(=O)O)[C@@H](C)O [FVGSLASKVVPSVFGAIKTK] | > 126 µM |  |  | MIC (Bacillus cereus): ≥ 126 µM
15 | CSCC[C@H](NC(=O)[C@@H](NC(=O)[C@H](CCCN=C(N)N)NC(=O)[C@H](Cc1ccccc1)NC(=O)[C@H](C)NC(=O)[C@H](C)NC(=O)[C@H](CCCCN)NC(=O)[C@H](CC(C)C)NC(=O)[C@H](Cc1c[nH]c2ccccc12)NC(=O)[C@H](C)NC(=O)[C@@H]1CCCN1C(=O)[C@@H](N)CCCN=C(N)N)C(C)C)C(=O)N[C@@H](CCCN=C(N)N)C(=O)N[C@@H](C)C(=O)N[C@@H](CS)C(=O)N[C@H](C(N)=O)C(C)C [RPAWLKAAFRVMRACV] |  |  |  | MIC (Pseudomonas aeruginosa): 4.27 µM (≈ 8 µg/mL)
16 | CC[C@H](C)[C@H](NC(=O)[C@H](CCCN=C(N)N)NC(=O)[C@H](CCC(N)=O)NC(=O)[C@@H](NC(=O)[C@@H](NC(=O)[C@H](CCCN=C(N)N)NC(=O)[C@@H](N)CCCCN)[C@@H](C)CC)C(C)C)C(=O)N[C@@H](CCCCN)C(=O)N[C@@H](C)C(=O)N[C@@H](Cc1ccccc1)C(=O)N[C@@H](CC(C)C)C(=O)N[C@@H](CCCN=C(N)N)C(=O)O [KRIVQRIKAFLR] |  | 1.25 µM (≈ 1.91 µg/mL) | 2.5 µM (≈ 3.82 µg/mL) | MIC [3]: 1.25 µM (≈ 1.91 µg/mL); MIC [4]: 5 µM (≈ 7.64 µg/mL)
